Molecules are shown by their SMILES. Marks after values point to notes of the source that are not given here.

The subject of series [1] is LNCaP xenograft tumor. Put plainly: microPET/CT imaging of LNCaP xenograft tumor-bearing mice. In kind it is in vivo. The method, then:
Inoculation of mice with xenografts. All animal studies were approved by the Institutional Animal Care and Use Committee of Weill Cornell Medicine and were undertaken in accordance with the guidelines set forth by the USPHS Policy on Humane Care and Use of Laboratory Animals. Animals were housed under standard conditions in approved facilities with 12 h light/dark cycles. Food and water was provided ad libitum throughout the course of the studies. Male inbred athymic nu/nu mice were purchased from The Jackson Laboratory. For inoculation in mice, LNCaP cells were suspended at 4×10^7 cells/mL in a 1:1 mixture of PBS:Matrigel (BD Biosciences). Each mouse was injected in the left flank with 0.25 mL of the cell suspension. The mice were imaged when the tumors reached approximately 200-400 mm^3, while biodistributions were conducted when tumors were in the range 100-400 mm^3.
Imaging. […] Specific activity was greater than […]. The mice were imaged by pPET/CT (Inveon™; Siemens Medical Solutions, Inc.) at 1 h, 2 h, 4 h, and 6 h post-injection ([^18F]fluorinated compounds) or 1 h and 3 h post-injection ([^68Ga]Ga-PSMA-HBED-CC). Total acquisition time was thirty minutes, and a CT scan was obtained either immediately before or immediately after the acquisition for both anatomical co-registration and attenuation correction. The data were reconstructed using the commercial Inveon™ software supplied by the vendor. Tumor uptake was estimated by drawing a region of interest (ROI).

Series [2] has as its system LNCaP tumor xenografts. Particulars: 1 h post injection, reported; cited from earlier work.

Consider `O=C(O)CCC(NC(=O)NC(CCCCNC(=O)c1ccc(F)nc1)C(=O)O)C(=O)O` (stereo not shown) [DCFPyL, 2-(3-{1-Carboxy-5-[(6-fluoropyridine-3-carbonyl)-amino]-pentyl}-ureido)-pentanedioic acid, reference compound], for which the “Max. LNCaP Tumor Uptake” value in series [1] (image derived calculation of tumor uptake (microPET/CT), at time of maximum uptake) is given as 5.71 ± 0.61^c % ID/g. The “Time p.i. of max. LNCaP tumor uptake” value in series [1] (microPET/CT imaging at 1, 2, 4, 6 h) is recorded as 1 h. Further, the Tumor washout entry in series [1] (microPET/CT imaging up to 6 h post injection) is reported as “rapid tumor washout”. Further, the SUVmax in series [2] was 1.1±0.1.

(Values after patent US12679812B2, “18F-labeled triazole containing PSMA inhibitors” (Cornell University, priority 2016, dated 2026).)
